Laboratory results: US20240341171A1 (Semiconductor Energy Laboratory Co., Ltd., priority 2021, published 2024)

Columns and labels:
[1] = Calculation of solubility parameter (SP value) by molecular dynamics (LAMMPS); conditions: calculated SP value against reference SP value of chloroform (approx. 9.4)
Source text: The solubility parameter (SP value) δ can be calculated by Formula (1) shown in the following Formula 1 and Formula (2) shown in the following Formula 2, using a cohesive energy density obtained by a molecular dynamics (MD) method using the interaction between molecules in the molecular assembly.
Note that in the above Formula 1 and Formula 2, NA represents Avogadro's constant, V represents a molar volume of a molecular assembly, Ecoh represents a cohesive energy, Eassembly/number of molecules represents an energy per molecule in an assembly, and Eisolated molecule represents energy of each molecule that constitutes the assembly.
As the energy of the assembly (Eassembly) and the energy of each molecule that constitutes the assembly (Eisolated molecule), a three-dimensional coordinate of a molecule that is calculated using LAMMPS, which is an open source software, can be used.
Specifically, an initial state of the molecular assembly in which molecules are arranged at random is generated, using a single material system of molecules whose SP value σ is intended to be calculated. Next, the energy Eassembly of the assembly is calculated by performing a MD calculation using an NTP ensemble until when the energy and the volume go into an equilibrium state. On the other hand, the energy Eisolated molecule of each molecule that constitutes the assembly is calculated in the following manner: the volume and the shape of each molecule that constitutes the assembly are fixed and sampling is performed by the MD calculation using NVT ensemble. Next, statistical processing and substitution into Formula 1 and Formula 2 are performed, whereby the SP value δ is calculated.
First, the energy Eassembly of the assembly of the PTCDI derivatives is calculated. Specifically, an initial state (also referred to as a liquid model) of the molecular assembly which consists of a single system of 100 PTCDI derivatives (shown above as (a) to (i)) arranged at random, is generated. Next, the MD calculation using the NTP ensemble is performed until the energy and the volume go into an equilibrium state. In the MD calculation, samplings of Step 1 under high-temperature and pressure-rising conditions, Step 2 under high-temperature and pressure-rising conditions, Step 3 under high-temperature and high-pressure conditions, Step 4 under high-temperature and normal-pressure conditions, and Step 5 under normal-temperature and normal-pressure conditions are sequentially performed. The energy Eassembly/number of molecules per molecule of the PTCDI derivative is calculated by dividing the calculated value by 100.
The energy Eassembly of the assembly of the solvent is calculated.
Next, the MD calculation using the NTP ensemble is performed until the energy and the volume go into an equilibrium state. […]

[2] = Solubility test of PTCDI compounds (1 mg, solvent added in 1 mL steps, ultrasonic treatment, visual check); assay type: physicochemical; conditions: for solubility: in chloroform and tetrahydrofuran, judged visually; for solvent [mL] CHCl3: volume of chloroform needed to dissolve 1 mg of compound; for solvent [mL] THF: volume of tetrahydrofuran needed to dissolve 1 mg of compound
Method: In this example, a solubility test for a perylenetetracarboxylic diimide (PTCDI) compounds were performed.
First, 1 mg of each of the PTCDJ compounds represented by (a) to (d) were weighed out and added to transparent containers. Next, (1) 1 mL of a solvent was added, and then ultrasonic treatment was performed for 1 minute. After that, (2) whether the PTCDI compounds were dissolved in the solvents was checked visually.
In each PTCDI compound, aforementioned (1) and (2) were repeated until the PTCDI compounds were dissolved in the solvents. When a solution is colored in yellowish-orange and solids of materials disappear, the PTCDI compounds are regarded to be dissolved.

[3] = reference value from a website; cited from earlier work

| SMILES | difference in SP value σ CHCl3 [1] | solubility [2] | solvent [mL] CHCl3 [2] [mL] | solvent [mL] THF [2] [mL] | SP value [3] |
| --- | --- | --- | --- | --- | --- |
| CN1C(=O)c2ccc3c4ccc5c6c(ccc(c7ccc(c2c37)C1=O)c64)C(=O)N(C)C5=O | 2.9 | extremely poor | >100 | >100 | – |
| CCCCCCCCN1C(=O)c2ccc3c4ccc5c6c(ccc(c7ccc(c2c37)C1=O)c64)C(=O)N(CCCCCCCC)C5=O | 1.3 | improved as compared with that of Me-PTCDI | 55 | >100 | – |
| CCCCC(CC)CN1C(=O)c2ccc3c4ccc5c6c(ccc(c7ccc(c2c37)C1=O)c64)C(=O)N(CC(CC)CCCC)C5=O (centres unmarked) | 1.0 | improved as compared with that of PTCDI-C8 | 1 | 16 | – |
| CCC(CC)N1C(=O)c2ccc3c4ccc5c6c(ccc(c7ccc(c2c37)C1=O)c64)C(=O)N(C(CC)CC)C5=O [(d) EtPr-PTCDI, 2,9-di(pentan-3-yl)anthra[2,1,9-def:6,5,10-d′e′f]diisoquinoline-1,3,8,10(2H,9H)-tetraone] | 0.9 | extremely favorable | 1 | 1 | – |
| ClC(Cl)Cl [chloroform] | – | – | – | – | approximately 9.4 (cal/cm^3)^1/2 |
